SMILES strings stand for the structures.

A short description of assay [1]: Trained panel taste evaluation of lemon ice tea beverages. The class given is in vivo, human. Particulars: conclusion from Table 3, sclareolide 0.075 wt % in Base B. The method, then: Lemon ice tea beverages were prepared with the following ingredients in the amounts shown (grams). Base A is the full sucrose product (i.e. control sample). Base B is the same as base A except with 50% reduced sucrose and additional stevia sweetener in to provide the same level of sweetness.
The ingredients for each base were mixed together until fully dissolved.
The samples were then evaluated by a trained panel of 10 people. Tasting was performed by a blind and balanced presentation order of the samples with the intensity of acidity, bitterness, sweetness and liquorice all being assessed on a scale of 0 to 5 where 0 represents not perceptible and 5 represents very intense.
The scores were averaged and an analysis of variance was performed to identify significant differences between the samples.

Assay [2] is described as follows: Panel evaluation of a carbonated lemon beverage formulation. To be noted: carbonated lemon beverage with stevia. The class given is in vivo, human. The method, then: A lemon beverage syrup base was prepared by mixing together the following ingredients:
To a 1 litre portion of the syrup base was added 6 g of sclareolide, ex Avoca (1% w/v ethanolic solution). The mixture was then dilute with 5 litres of carbonated water to provide sclareolide at 10 ppm. This is referred to as sample 6.
To another 1 litre portion of the syrup base was added 0.12 g of sclareolide, ex Avoca (1% w/v ethanolic solution). The mixture was then dilute with 5 litres of carbonated water to provide sclareolide at 0.2 ppm. This is referred to as sample 7.
A third portion of the syrup base was used as is (i.e. with no sclareolide present) and was diluted with 5 litres of carbonated water. This is referred to as sample 8.
30 panellists were then asked to evaluate (i) sample 6 and sample 8 and (ii) sample 7 and sample 8 in a balanced, randomized blind test for Overall Flavor, Sweetness, Tartness/Acidity, Lingering Aftertaste, Metallic/Bitterness, Off-note aftertaste and Liquorice Flavor on an 11-point continuous intensity scale where 0=Imperceptible and 10=Extremely Pronounced.

Consider `CC1(C)CCC[C@]2(C)[C@H]3CC(=O)O[C@]3(C)CC[C@@H]12` [sclareolide], for which, in assay [1], the “effect on the acidity, bitterness or sweetness of the product” value is reported as “does not appear to have a significant effect” and the “effect on the liquorice taste of the product” value is listed as “significantly reduces the liquorice taste”. Also, in assay [2] (sclareolide at 0.2 ppm), the masking effect result is “little or no masking effect observed”. The masking liquorice notes entry in assay [2] (sclareolide at 10 ppm) is given as “not achieved”.

The record behind these values is patent publication US20130115356A1, “SWEETENER COMPOSITION” (FIRMENICH SA, priority 2010, published 2013).
